Reference: patent publication US11541050B2, “Pyrimidine derivatives for the treatment of viral infections” (JANSSEN SCIENCES IRELAND UC, priority 2011, dated 2023)

How the values were obtained:
[1] = test system: human TLR7 mutant sequence comprising a deletion in the second leucine-rich repeat; test: TLR7 cellular NFκB-luc reporter assay, mutant TLR7 with deletion in the second leucine-rich repeat; format: cell-based; design: unit not given here; settings: lowest effective concentration, TLR7 mutant with deletion in second leucine-rich repeat
Procedure, shortened: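 HEK293 cells transiently co-transfected with CMV-driven mutant TLR7 or TLR8 plasmid plus NFκB-luc reporter, cultured 48 h at 37 °C, then exposed to compound for 6 h at 37 °C, 5% CO2. Luciferase luminescence measured; dose-response curves from quadruplicates.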

[2] = target: T1, human TLR7 (wild type sequence) (Homo sapiens, UniProt Q9NYK1); test: TLR7 cellular NFκB-luc reporter assay, wild type TLR7; format: cell-based; design: unit not given here; settings: lowest effective concentration, wild type TLR7 (compounds 1-73)
T1 construct: expressed in transfected cells; host or cells: HEK293
T1 sequence (Q9NYK1 27-1049): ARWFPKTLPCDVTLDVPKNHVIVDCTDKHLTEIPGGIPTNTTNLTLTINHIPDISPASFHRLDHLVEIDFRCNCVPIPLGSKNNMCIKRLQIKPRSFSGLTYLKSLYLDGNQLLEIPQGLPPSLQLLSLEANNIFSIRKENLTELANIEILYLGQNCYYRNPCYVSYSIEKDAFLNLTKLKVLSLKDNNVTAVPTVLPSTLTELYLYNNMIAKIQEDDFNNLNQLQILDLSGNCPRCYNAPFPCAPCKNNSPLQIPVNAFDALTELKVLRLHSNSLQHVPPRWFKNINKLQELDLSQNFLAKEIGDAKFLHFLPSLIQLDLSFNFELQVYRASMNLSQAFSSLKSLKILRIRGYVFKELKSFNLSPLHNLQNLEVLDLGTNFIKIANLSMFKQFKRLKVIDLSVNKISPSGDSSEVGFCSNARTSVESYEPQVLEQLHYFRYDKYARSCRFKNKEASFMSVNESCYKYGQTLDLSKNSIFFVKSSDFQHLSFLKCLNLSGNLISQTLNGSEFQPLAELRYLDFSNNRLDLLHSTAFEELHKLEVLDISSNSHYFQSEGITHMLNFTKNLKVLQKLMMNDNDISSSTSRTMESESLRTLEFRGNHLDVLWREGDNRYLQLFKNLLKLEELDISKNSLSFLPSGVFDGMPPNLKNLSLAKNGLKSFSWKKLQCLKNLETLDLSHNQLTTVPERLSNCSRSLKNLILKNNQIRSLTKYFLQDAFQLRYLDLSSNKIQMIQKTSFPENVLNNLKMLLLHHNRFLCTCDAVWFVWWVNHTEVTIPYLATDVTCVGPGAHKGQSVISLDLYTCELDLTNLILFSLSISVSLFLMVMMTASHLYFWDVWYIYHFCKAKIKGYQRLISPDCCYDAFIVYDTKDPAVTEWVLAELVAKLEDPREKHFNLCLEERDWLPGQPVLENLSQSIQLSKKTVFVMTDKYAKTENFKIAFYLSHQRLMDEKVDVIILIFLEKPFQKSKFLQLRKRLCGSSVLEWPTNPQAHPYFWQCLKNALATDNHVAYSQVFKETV
Procedure, shortened: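 HEK293 cells were transiently transfected for 48 h with a CMV-driven wild-type or LRR2-deletion TLR7 or TLR8 plasmid plus an NFκB-luc reporter. They were then exposed to compound for 6 h at 37 °C and luciferase was read. LEC is the concentration giving an effect at least twofold above the assay SD, from quadruplicate dose-response curves.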

Row | Compound | TLR7-dIRR2_LEC [1] | TLR7-wt_LEC [2]
1 | CCCCNc1nc(N)ncc1OC [Compound 4] | 1.17 | 6.71
2 | CCCCNc1nc(N)ncc1OCC(C)C [Compound 31] | 5.27 | >24.59
3 | CCCCCOc1cnc(N)nc1NCCCC [Compound 32] | 1.35 | 10.60
4 | CCCCCNc1nc(N)ncc1Oc1ccccc1OC [Compound 38] | 2.46 | 21.97
5 | CCCCCNc1nc(N)ncc1OC [Compound 56] | 0.84 | 12.02
6 | CCCCNc1nc(N)ncc1OCc1ccc(-c2ccccc2)cc1 [Compound 58] | 0.99 | 6.48
7 | CCCCNc1nc(N)ncc1OCC [Compound 60] | 1.38 | 5.58
8 | CCCCCNc1nc(N)ncc1OCC [Compound 63] | 1.79 | 2.78
9 | CCCCNc1nc(N)ncc1Oc1ccccc1OC [Compound 64] | 2.03 | 8.47
10 | CCCCCCNc1nc(N)ncc1OCC [Compound 70] | 4.96 | 15.84
